From US20240158370A1, “CK1 alpha AND DUAL CK1 alpha / GSPT1 DEGRADING COMPOUNDS” (Innovo Therapeutics, Inc., priority 2022, published 2024)

Columns and labels:
Assay type in all cases: cell-based
CK1α = molecular target: T1, CK1α (Homo sapiens, UniProt P48729+Q96SW2); test: HiBiT degradation assay, CK1α, Procedure A
T1 construct: CSNK1A1-HiBit KI HEK293(LgBit) Cells; host or cells: HEK293(LgBit) knock-in cells
Procedure, shortened: (§1)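 10-pt dose response, 10–0.005 μM, 0.1% DMSO; cells 1×10^6/ml in DMEM/10% FBS, 6 h, 37° C; HiBiT lytic detection, luminescence; DC50 + Ymin by 4-parameter fit.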

Z-138 cells = test: Z-138 Proliferation Assay (Cell Titer-Glo); details: 72 hours; for Ymin (%): % remaining (percent of DMSO control); for EC50: Homo sapiens, Cell Titer-Glo, 4-parameter curve fit
Procedure: Z-138 Proliferation Assay
Z-138 cells were cultured in IMDM Medium supplemented with 10% heat in-activated fetal bovine serum and 1% Penicillin-Streptomycin.
10 mM stocks of compound were made from fresh powder. DMSO was added to solid compound so that the final concentration was 10 mM. Compounds were vortexed and allowed to sit for 5 minutes to ensure complete solubility. Solvated compound was aliquoted into 1 ml Eppendorf tubes and stored in a −20° C. freezer.
Z-138 cells were maintained in culture using standard cell culturing techniques.
Cells were maintained at a density of 0.8×10^6 cells/ml.
Re-constitute cell titer-glo reagent according to manufacturer's protocol.
Z-138 cells were removed from culture and cell viability and density were determined using a CellDrop™ Automated Cell Counter with Tryphan blue stain according to manufacturer's protocols. Cells were centrifuged and resuspended using fresh media to a cell density of 0.1×10^6 cells/ml. […] 40 μl of cell suspension was added to the wells of a 384 well tissue culture plate (4,000 cells/well final). Upon completing the addition of the cells to the plate, the plates were centrifuged for 30 seconds at 300 rpms to help the cells settle and to bring air bubbles to the top of the wells. Air bubbles were popped using a pipette tip.
10-point dose response curves were performed using a D300e Digital Dispenser. The highest concentration of compound used in the assay was 10,000 nM. 1:2 dilutions were performed over a 10-point range with the final DMSO concentration being 0.1%. The cells were cultured for 72 hours in the presence of compound.
After 72 hours, the cell plates were removed from the incubator and allowed to equilibrate to room temperature (about 15 minutes). 20 μl of cell titer-glo reagent was added to each well of the 384 well plate. Incubated the plate for 30 minutes in the dark. After 30 minutes, ensured that there were no air bubbles in the plate (popped bubbles with pipette tip if necessary) and analyzed plate using a luminometer.
EC50 curves were generated using Prism Graph Pad. In brief, POCs (percent of control, compound/DMSO control×100) were plotted against the compound concentrations (log scale). EC50 curves were generated using a 4-parameter curve fit.

GSPT1 = GSPT1 (Homo sapiens, UniProt P15170+Q96SW2); test: HiBiT degradation assay, GSPT1, Procedure A; set-up: HiBit-GSPT1 KI HEK293(LgBit) Cells; host or cells: HEK293(LgBit) knock-in cells
Procedure, shortened: as §1

GSPT1, sequence (P15170 whole entry): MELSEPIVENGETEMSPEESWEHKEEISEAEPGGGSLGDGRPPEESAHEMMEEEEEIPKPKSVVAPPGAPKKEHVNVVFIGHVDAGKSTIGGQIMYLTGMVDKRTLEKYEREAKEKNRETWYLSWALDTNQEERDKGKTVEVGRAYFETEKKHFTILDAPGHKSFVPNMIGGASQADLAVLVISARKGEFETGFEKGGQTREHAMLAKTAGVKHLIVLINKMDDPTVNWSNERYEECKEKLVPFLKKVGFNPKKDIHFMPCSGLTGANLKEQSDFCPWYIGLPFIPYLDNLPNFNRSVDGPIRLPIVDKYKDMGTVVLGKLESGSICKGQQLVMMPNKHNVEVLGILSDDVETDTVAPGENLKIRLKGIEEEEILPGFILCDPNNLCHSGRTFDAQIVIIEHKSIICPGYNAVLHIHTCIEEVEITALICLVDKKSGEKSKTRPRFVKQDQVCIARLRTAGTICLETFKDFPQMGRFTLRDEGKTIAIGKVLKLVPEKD
GSPT1, sequence (Q96SW2 whole entry): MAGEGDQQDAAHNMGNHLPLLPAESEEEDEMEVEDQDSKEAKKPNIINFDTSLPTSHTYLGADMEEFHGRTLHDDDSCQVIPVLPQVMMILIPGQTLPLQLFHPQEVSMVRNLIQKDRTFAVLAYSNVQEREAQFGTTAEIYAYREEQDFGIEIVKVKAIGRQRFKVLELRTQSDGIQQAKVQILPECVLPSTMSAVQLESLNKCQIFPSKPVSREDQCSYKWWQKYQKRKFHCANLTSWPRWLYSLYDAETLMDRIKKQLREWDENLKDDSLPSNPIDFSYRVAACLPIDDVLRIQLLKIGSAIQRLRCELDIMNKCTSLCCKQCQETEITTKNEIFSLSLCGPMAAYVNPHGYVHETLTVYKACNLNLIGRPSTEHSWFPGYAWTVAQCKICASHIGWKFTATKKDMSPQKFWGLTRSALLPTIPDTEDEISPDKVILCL
GSPT1, sequence (Q16531 whole entry partner): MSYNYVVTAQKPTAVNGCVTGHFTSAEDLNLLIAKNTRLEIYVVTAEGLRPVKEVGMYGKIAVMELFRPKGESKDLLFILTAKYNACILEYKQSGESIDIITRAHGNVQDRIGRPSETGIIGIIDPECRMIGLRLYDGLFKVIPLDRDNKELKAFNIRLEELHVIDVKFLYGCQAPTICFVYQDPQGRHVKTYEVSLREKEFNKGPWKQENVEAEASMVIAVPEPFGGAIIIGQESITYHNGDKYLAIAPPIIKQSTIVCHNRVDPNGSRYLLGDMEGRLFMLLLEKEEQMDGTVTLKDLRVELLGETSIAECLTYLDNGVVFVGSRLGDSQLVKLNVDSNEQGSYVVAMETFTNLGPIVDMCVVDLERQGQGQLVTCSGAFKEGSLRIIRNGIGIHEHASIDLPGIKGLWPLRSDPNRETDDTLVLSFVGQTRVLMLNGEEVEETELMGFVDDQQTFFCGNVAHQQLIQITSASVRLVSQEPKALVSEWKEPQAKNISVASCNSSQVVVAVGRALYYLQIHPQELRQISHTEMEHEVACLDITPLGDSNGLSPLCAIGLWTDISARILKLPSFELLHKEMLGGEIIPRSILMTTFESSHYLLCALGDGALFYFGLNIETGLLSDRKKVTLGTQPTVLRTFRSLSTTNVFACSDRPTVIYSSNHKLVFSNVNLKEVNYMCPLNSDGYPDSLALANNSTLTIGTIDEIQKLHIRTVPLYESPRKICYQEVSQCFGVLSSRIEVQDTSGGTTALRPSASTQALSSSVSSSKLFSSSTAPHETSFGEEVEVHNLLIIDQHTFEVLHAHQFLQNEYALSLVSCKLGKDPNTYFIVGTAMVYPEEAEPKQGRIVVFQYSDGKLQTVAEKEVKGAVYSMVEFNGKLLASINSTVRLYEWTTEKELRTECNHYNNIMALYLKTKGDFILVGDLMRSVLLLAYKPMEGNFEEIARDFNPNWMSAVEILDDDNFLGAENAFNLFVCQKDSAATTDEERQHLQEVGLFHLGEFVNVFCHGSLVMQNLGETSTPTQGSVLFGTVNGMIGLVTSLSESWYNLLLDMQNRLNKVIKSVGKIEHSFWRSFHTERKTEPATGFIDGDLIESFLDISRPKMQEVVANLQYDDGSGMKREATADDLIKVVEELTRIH
T1 sequence (P48729 whole entry): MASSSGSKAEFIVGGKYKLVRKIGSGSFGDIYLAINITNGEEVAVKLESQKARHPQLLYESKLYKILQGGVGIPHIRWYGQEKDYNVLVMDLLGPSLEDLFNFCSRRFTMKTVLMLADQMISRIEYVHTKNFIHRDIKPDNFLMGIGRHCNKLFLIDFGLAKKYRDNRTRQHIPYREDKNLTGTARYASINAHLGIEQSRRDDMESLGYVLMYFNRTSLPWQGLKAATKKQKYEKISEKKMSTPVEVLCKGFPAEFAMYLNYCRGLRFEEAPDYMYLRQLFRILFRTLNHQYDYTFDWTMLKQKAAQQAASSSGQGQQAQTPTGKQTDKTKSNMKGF
T1 sequence (Q96SW2 whole entry): as the sequence (Q96SW2 whole entry) above
T1 sequence (Q16531 whole entry partner): as the sequence (Q16531 whole entry partner) above

Row | CK1α Ymin (CK1α; six hours incubation) | DC50 (CK1α; six hours incubation) [µM] | DC50 (GSPT1; six hours incubation) [µM] | GSPT1 Ymin (GSPT1; six hours incubation) | CK1α Ymin (CK1α; six hours) | DC50 (CK1α; six hours) [µM] | DC50 (GSPT1; six hours) [µM] | GSPT1 Ymin (GSPT1; six hours) | Compound | Ymin (%) (Z-138 cells) | EC50 (Z-138 cells) [µM]
1 | D (D = >10- 25% remaining) | < 0.025 | ≥ 0.025 | F (F = >75-100% remaining) |  |  |  |  | O=C1CCC(N2Cc3cc(-c4ccn(-c5ccccc5)n4)ccc3C2=O)C(=O)N1 (stereo not drawn) [Example 34, 3-(1-Oxo-5-(1-phenyl-1H-pyrazol-3-yl)isoindolin-2-yl)piperidine-2,6-dione] | E (>10-25% remaining) | 0.01 to 0.1
2 | C (C = 0-10% remaining) | < 0.025 | < 0.025 | F (F = >75-100% remaining) |  |  |  |  | CN(C)Cc1ccc(-c2c(-c3ccc4c(c3)CN(C3CCC(=O)NC3=O)C4=O)ncn2C)cc1 (stereo not drawn) [Example 269] | D (0-10% remaining) | < 0.01
3 | C (C = 0-10% remaining) | < 0.025 | ≥ 0.025 | F (F = >75-100% remaining) |  |  |  |  | Cn1cc(-c2ccc3c(c2)CN(C2CCC(=O)NC2=O)C3=O)nc1-c1ccccc1 (stereo not drawn) [Example 25, 3-(5-(1-Methyl-2-phenyl-1H-imidazol-4-yl)-1-oxoisoindolin-2-yl)piperidine-2,6-dione] | D (0-10% remaining) | < 0.01
4 |  |  |  |  | D (D = >10- 25% remaining) | < 0.025 | ≥ 0.025 | F (F = >75-100% remaining) | Cn1nc(-c2ccc3c(c2)CN(C2CCC(=O)NC2=O)C3=O)cc1C1CCC(F)(F)CC1 (stereo not drawn) [Example 546, 3-(5-(5-(4,4-difluorocyclohexyl)-1-methyl-1H-pyrazol-3-yl)-1-oxoisoindolin-2-yl)piperidine-2,6-dione] | F (>25-50% remaining) | 0.01 to 0.1
5 | C (C = 0-10% remaining) | < 0.025 | ≥ 0.025 | F (F = >75-100% remaining) |  |  |  |  | CN(C)Cc1ccc(-c2c(-c3ccc4c(c3)CN(C3CCC(=O)NC3=O)C4=O)cnn2C)cc1 (stereo not drawn) [Example 224] | E (>10-25% remaining) | < 0.01
6 |  |  |  |  | C (C = 0-10% remaining) | < 0.025 | ≥ 0.025 | F (F = >75-100% remaining) | Cn1nc(-c2ccc3c(c2)CN(C2CCC(=O)NC2=O)C3=O)nc1-c1ccccc1 (stereo not drawn) [Example 519, 3-[5-(1-methyl-5-phenyl-1,2,4-triazol-3-yl)-1-oxo-isoindolin-2-yl]piperidine-2,6-dione] | E (>10-25% remaining) | 0.01 to 0.1
7 |  |  |  |  | D (D = >10- 25% remaining) | < 0.025 | < 0.025 | F (F = >75-100% remaining) | O=C1CCC(N2Cc3cc(-c4cnn(C(F)F)c4-c4ccccc4)ccc3C2=O)C(=O)N1 (stereo not drawn) [Example 422, 3-(5-(1-(difluoromethyl)-5-phenyl-1H-pyrazol-4-yl)-1-oxoisoindolin-2-yl)piperidine-2,6-dione] | D (0-10% remaining) | 0.01 to 0.1
8 |  |  |  |  | C (C = 0-10% remaining) | < 0.025 | < 0.025 | E (E = >25-75% remaining) | Cn1cnc(-c2ccc3c(c2)CN(C2CCC(=O)NC2=O)C3=O)c1C1CCCCC1 (stereo not drawn) [Example 594] | D (0-10% remaining) | < 0.01
9 | C (C = 0-10% remaining) | < 0.025 | < 0.025 | F (F = >75-100% remaining) |  |  |  |  | O=C1CCC(N2Cc3cc(-c4ncn5c4-c4ccccc4C5)ccc3C2=O)C(=O)N1 (stereo not drawn) [Example 339, 3-(5-(5H-imidazo[5,1-a]isoindol-1-yl)-1-oxoisoindolin-2-yl)piperidine-2,6-dione] | D (0-10% remaining) | 0.01 to 0.1
10 | D (D = >10- 25% remaining) | < 0.025 | ≥ 0.025 | F (F = >75-100% remaining) |  |  |  |  | Cn1cnc(-c2ccc3c(c2)CN(C2CCC(=O)NC2=O)C3=O)c1-c1cnn2ccccc12 (stereo not drawn) [Example 331] | D (0-10% remaining) | 0.01 to 0.1
11 | C (C = 0-10% remaining) | < 0.025 | < 0.025 | E (E = >25-75% remaining) |  |  |  |  | O=C1CCC(N2Cc3cc(-c4nccn4-c4ccccc4)ccc3C2=O)C(=O)N1 (stereo not drawn) [Example 7, 3-(1-Oxo-5-(1-phenyl-1H-imidazol-2-yl)isoindolin-2-yl)piperidine-2,6-dione] | D (0-10% remaining) | < 0.01
12 |  |  |  |  | C (C = 0-10% remaining) | < 0.025 | ≥ 0.025 | F (F = >75-100% remaining) | Cn1ncc(-c2ccc3c(c2)CN(C2CCC(=O)NC2=O)C3=O)c1-c1ccc2cc[nH]c2c1 (stereo not drawn) [Example 379] | D (0-10% remaining) | < 0.01
13 |  |  |  |  | C (C = 0-10% remaining) | < 0.025 | < 0.025 | F (F = >75-100% remaining) | O=C1CCC(N2Cc3cc(-c4nc(-c5ccccc5)n(C5CC5)n4)ccc3C2=O)C(=O)N1 (stereo not drawn) [Example 705, 3-(5-(1-cyclopropyl-5-phenyl-1H-1,2,4-triazol-3-yl)-1-oxoisoindolin-2-yl)piperidine-2,6-dione] | E (>10-25% remaining) | 0.01 to 0.1
14 | D (D = >10- 25% remaining) | < 0.025 | ≥ 0.025 | F (F = >75-100% remaining) |  |  |  |  | O=C1CCC(N2Cc3cc(-c4cnn5c4-c4ccccc4C5)ccc3C2=O)C(=O)N1 (stereo not drawn) [Example 212, 3-(1-Oxo-5-(8H-pyrazolo[5,1-a]isoindol-3-yl)isoindolin-2-yl)piperidine-2,6-dione] | D (0-10% remaining) | 0.1 to 0.5
15 | E (E = >25-75% remaining) | < 0.025 | ≥ 0.025 | F (F = >75-100% remaining) |  |  |  |  | O=C1CCC(N2Cc3cc(-c4cnoc4-c4ccccc4)ccc3C2=O)C(=O)N1 (stereo not drawn) [Example 39, 3-(1-Oxo-5-(5-phenylisoxazol-4-yl)isoindolin-2-yl)piperidine-2,6-dione] | D (0-10% remaining) | 0.1 to 0.5
16 | C (C = 0-10% remaining) | < 0.025 | < 0.025 | D (D = >10- 25% remaining) |  |  |  |  | O=C1CCC(N2Cc3cc(-c4nccn4C4CCCCC4)ccc3C2=O)C(=O)N1 (stereo not drawn) [Example 48, 3-(5-(1-Cyclohexyl-1H-imidazol-2-yl)-1-oxoisoindolin-2-yl)piperidine-2,6-dione] | D (0-10% remaining) | < 0.01
17 | C (C = 0-10% remaining) | < 0.025 | ≥ 0.025 | E (E = >25-75% remaining) |  |  |  |  | Cc1nc(-c2ccc3c(c2)CN(C2CCC(=O)NC2=O)C3=O)c(-c2ccccc2)n1C (stereo not drawn) [Example 14, 3-(5-(1,2-Dimethyl-5-phenyl-1H-imidazol-4-yl)-1-oxoisoindolin-2-yl)piperidine-2,6-dione] | D (0-10% remaining) | < 0.01
18 | D (D = >10- 25% remaining) | < 0.025 | < 0.025 | F (F = >75-100% remaining) |  |  |  |  | Cn1cnc(-c2ccc3c(c2)CN(C2CCC(=O)NC2=O)C3=O)c1-c1cccc(N2CCCC2)c1 (stereo not drawn) [Example 287] | D (0-10% remaining) | < 0.01
